Results: US20050009776A1, “Method of treating atrial fibrillation or atrial flutter” (Aderis Pharmaceuticals, Inc., priority 2003, published 2005)

Tests used:
[1] = tested on: A1 receptor / A3 receptor; assay: Affinity for adenosine A1 receptor relative to A3 receptor; assay type: binding
Description: Therefore, DTI-0009 may be capable of terminating episodes of supraventricular arrythymias at doses that have little effect on normal heart rate or blood pressure.

[2] = Example 2: safety (adverse events, blood pressure, clinical laboratory values); assay type: in vivo, human; details: for Diastolic BP Change from Baseline Post-treatment / Diastolic BP Change from Baseline Treatment / Systolic BP Change from Baseline Post-treatment / Systolic BP Change from Baseline Treatment: mean ± SD
Protocol: Each patient received 1 of 6 doses of DTI-0009 (0.25, 1.0, 2.5, 4.0, 10.0, or 25.0 μg/kg) diluted in normal saline or normal saline only (control). Study drug was administered as a 30-minute i.v. infusion at a rate of 1 mL/minute. Patients were enrolled in sequential dose groups, beginning with the lowest active dose group and continuing in increasing dose order; the final group received normal saline. The decision to proceed to the next highest dose group was based on the safety response in the previous dose group.
Electrophysiologic (EP), electrocardiogram (ECG), blood pressure measurements, and blood collection for clinical laboratory measurements were performed at baseline (−10 to 0 minutes), during treatment (between 20 and 30 minutes), and at 10 minutes post-treatment.
ECG measurements included PR interval, QRS complex duration, and QT interval. Efficacy was based on changes in EP and ECG parameters from baseline to the treatment period and to post treatment. Safety was based on the incidence of adverse events, blood pressure measurements, and clinical laboratory values.
The incidence of adverse events, blood pressure measurements, and clinical laboratory results were summarized by dose group. Adverse events were coded using the medical dictionary for regulatory activities (MedDRA version 3.0). Safety analyses included all patients who received any duration of study drug infusion.

With `CCNC(=O)[C@H]1O[C@@H](n2cnc3c(NC4CCCC4)ncnc32)[C@H](O)[C@@H]1O` [DTI-0009, N^6-cyclopentyl-5′-(N-ethyl)carboxamidoadenosine] the “affinity for the A1 receptor higher than for the A3 receptor” value [1] was 11 fold, the “Adverse Events Related to Study Drug: Cardiac Disorders (all)” value ([2]; 0.25 μg/kg (n = 10)) was 0 and the “Adverse Events Related to Study Drug: General Disorders (all)” value ([2]; 0.25 μg/kg (n = 10)) was 0. The “Incidence of Adverse Events Related to Study Drug” value (“Incidence … to Study Drug” for short) ([2]; 0.25 μg/kg (n = 10)) was 0, the “Incidence of Adverse Events: Any Adverse Event” value (“Incidence … Any Adverse Event” for short) ([2]; 0.25 μg/kg (n = 10)) was 3 (30%) and the “Incidence of Adverse Events: Atrial fibrillation” value (from here on “Incidence … Atrial fibrillation”) ([2]; 0.25 μg/kg (n = 10)) was 1 (10%). For the same compound, the “Incidence of Adverse Events: Atrial flutter” value (“Incidence … Atrial flutter” below) ([2]; 0.25 μg/kg (n = 10)) was 1 (10%), the “Incidence of Adverse Events: Atrial tachycardia” value (from here on “Incidence … Atrial tachycardia”) ([2]; 0.25 μg/kg (n = 10)) was 0 and the “Incidence of Adverse Events: Bradycardia” value ([2]; 0.25 μg/kg (n = 10)) was 0. The “Incidence of Adverse Events: Cardiac Disorders” value (shortened to “Incidence … Cardiac Disorders”) ([2]; 0.25 μg/kg (n = 10)) was 2 (20%), the “Incidence of Adverse Events: Chest pain/tightness” value (“Incidence … Chest pain/tightness” for short) ([2]; 0.25 μg/kg (n = 10)) was 0 and the “Incidence of Adverse Events: Conduction disorders” value (shortened to “Incidence … Conduction disorders”) ([2]; 0.25 μg/kg (n = 10)) was 0. For the same compound, the “Incidence of Adverse Events: General Disorders” value (“Incidence … General Disorders” below) ([2]; 0.25 μg/kg (n = 10)) was 0, the “Incidence of Adverse Events: Groin pain/swelling” value (shortened to “Incidence … Groin pain/swelling”) ([2]; 0.25 μg/kg (n = 10)) was 0 and the “Diastolic BP Change from Baseline Post-treatment” value ([2]; 0.25 μg/kg) was 5.2 ± 9.7 mmHg. For the same compound, the “Diastolic BP Change from Baseline Treatment” value ([2]; 0.25 μg/kg) was 2.5 ± 8.1 mmHg, the “Systolic BP Change from Baseline Post-treatment” value ([2]; 0.25 μg/kg) was 5.8 ± 9.5 mmHg and the “Systolic BP Change from Baseline Treatment” value ([2]; 0.25 μg/kg) was 8.8 ± 8.2 mmHg. The “Adverse Events Related to Study Drug: Cardiac Disorders (all)” value ([2]; 1.0 μg/kg (n = 10)) was 1 (10%), the “Adverse Events Related to Study Drug: General Disorders (all)” value ([2]; 1.0 μg/kg (n = 10)) was 0 and the “Incidence … to Study Drug” value ([2]; 1.0 μg/kg (n = 10)) was 1 (10%). For the same compound, the “Incidence … Any Adverse Event” value ([2]; 1.0 μg/kg (n = 10)) was 6 (60%), the “Incidence … Atrial fibrillation” value ([2]; 1.0 μg/kg (n = 10)) was 0 and the “Incidence … Atrial flutter” value ([2]; 1.0 μg/kg (n = 10)) was 1 (10%). The “Incidence … Atrial tachycardia” value ([2]; 1.0 μg/kg (n = 10)) was 0, the “Incidence of Adverse Events: Bradycardia” value ([2]; 1.0 μg/kg (n = 10)) was 0 and the “Incidence … Cardiac Disorders” value ([2]; 1.0 μg/kg (n = 10)) was 1 (10%). For the same compound, the “Incidence … Chest pain/tightness” value ([2]; 1.0 μg/kg (n = 10)) was 0, the “Incidence … Conduction disorders” value ([2]; 1.0 μg/kg (n = 10)) was 0 and the “Incidence … General Disorders” value ([2]; 1.0 μg/kg (n = 10)) was 1 (10%). The “Incidence … Groin pain/swelling” value ([2]; 1.0 μg/kg (n = 10)) was 1 (10%), the “Diastolic BP Change from Baseline Post-treatment” value ([2]; 1.0 μg/kg) was 1.0 ± 5.6 mmHg and the “Diastolic BP Change from Baseline Treatment” value ([2]; 1.0 μg/kg) was 3.3 ± 9.3 mmHg. For the same compound, the “Systolic BP Change from Baseline Post-treatment” value ([2]; 1.0 μg/kg) was 1.4 ± 21.5 mmHg, the “Systolic BP Change from Baseline Treatment” value ([2]; 1.0 μg/kg) was −0.1 ± 18.0 mmHg and the “Adverse Events Related to Study Drug: Cardiac Disorders (all)” value ([2]; 2.5 μg/kg (n = 8)) was 0. The “Adverse Events Related to Study Drug: General Disorders (all)” value ([2]; 2.5 μg/kg (n = 8)) was 0, the “Incidence … to Study Drug” value ([2]; 2.5 μg/kg (n = 8)) was 0 and the “Incidence … Any Adverse Event” value ([2]; 2.5 μg/kg (n = 8)) was 3 (38%). For the same compound, the “Incidence … Atrial fibrillation” value ([2]; 2.5 μg/kg (n = 8)) was 1 (13%), the “Incidence … Atrial flutter” value ([2]; 2.5 μg/kg (n = 8)) was 0 and the “Incidence … Atrial tachycardia” value ([2]; 2.5 μg/kg (n = 8)) was 0. The “Incidence of Adverse Events: Bradycardia” value ([2]; 2.5 μg/kg (n = 8)) was 0, the “Incidence … Cardiac Disorders” value ([2]; 2.5 μg/kg (n = 8)) was 1 (13%) and the “Incidence … Chest pain/tightness” value ([2]; 2.5 μg/kg (n = 8)) was 1 (13%). The “Incidence … Conduction disorders” value ([2]; 2.5 μg/kg (n = 8)) was 0, the “Incidence … General Disorders” value ([2]; 2.5 μg/kg (n = 8)) was 2 (25%) and the “Incidence … Groin pain/swelling” value ([2]; 2.5 μg/kg (n = 8)) was 0. The “Diastolic BP Change from Baseline Post-treatment” value ([2]; 2.5 μg/kg) was −1.6 ± 9.5 mmHg, the “Diastolic BP Change from Baseline Treatment” value ([2]; 2.5 μg/kg) was 0.0 ± 8.4 mmHg and the “Systolic BP Change from Baseline Post-treatment” value ([2]; 2.5 μg/kg) was 0.6 ± 9.0 mmHg. The “Systolic BP Change from Baseline Treatment” value ([2]; 2.5 μg/kg) was 1.0 ± 6.2 mmHg, the “Adverse Events Related to Study Drug: Cardiac Disorders (all)” value ([2]; 4.0 μg/kg (n = 10)) was 2 (20%) and the “Adverse Events Related to Study Drug: General Disorders (all)” value ([2]; 4.0 μg/kg (n = 10)) was 0. The “Incidence … to Study Drug” value ([2]; 4.0 μg/kg (n = 10)) was 2 (20%), the “Incidence … Any Adverse Event” value ([2]; 4.0 μg/kg (n = 10)) was 2 (20%) and the “Incidence … Atrial fibrillation” value ([2]; 4.0 μg/kg (n = 10)) was 2 (20%). The “Incidence … Atrial flutter” value ([2]; 4.0 μg/kg (n = 10)) was 0, the “Incidence … Atrial tachycardia” value ([2]; 4.0 μg/kg (n = 10)) was 0 and the “Incidence of Adverse Events: Bradycardia” value ([2]; 4.0 μg/kg (n = 10)) was 0.
